Values of other authors in patent publication US6632929B1, “Avidin derivatives and uses thereof” (Yeda Research and Development Co. LTD, priority 1998, dated 2003).

Legend:
avidin [1] = target: T1, avidin (Gallus gallus, UniProt P02701); conditions: non-covalent, same biotin-binding site (Green, 1965); read-out: affinity; cited from earlier work
T1 construct: Egg-white avidin was provided by STC laboratories (Winnipeg, Canada); purchased STC laboratories (Winnipeg, Canada); host or cells: egg white
T1 sequence (P02701 25-152): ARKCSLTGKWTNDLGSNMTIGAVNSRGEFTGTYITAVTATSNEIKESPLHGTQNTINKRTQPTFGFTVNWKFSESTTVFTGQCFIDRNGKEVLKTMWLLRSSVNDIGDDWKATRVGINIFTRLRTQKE

avidin [2] = target: T1, avidin; conditions: avidin-biotin complex; cited from earlier work
streptavidin = streptavidin (Streptomyces avidinii, UniProt P22629); conditions: streptavidin-biotin complex; cited from earlier work
Chain of streptavidin (P22629 25-183): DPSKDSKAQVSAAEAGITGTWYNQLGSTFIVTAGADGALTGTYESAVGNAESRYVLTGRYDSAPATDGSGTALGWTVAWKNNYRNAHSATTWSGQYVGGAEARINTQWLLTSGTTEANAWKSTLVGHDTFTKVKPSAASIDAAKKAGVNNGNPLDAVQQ

Question: For `O=C(O)c1ccccc1N=Nc1ccc(O)cc1` [4′-hydroxyazobenzene-2-carboxylic acid], which Kd (avidin [1]) is on record?
Answer: 1 to 10 µM

Question: With `O=C(O)CCCC[C@@H]1SC[C@@H]2NC(=O)N[C@@H]21` [biotin] as the molecule, how does the affinity constant (avidin [2]) read?
Answer: 1.6e+15 M⁻¹

Question: And the affinity constant (streptavidin)?
Answer: 2.5e+13 M⁻¹
